Measured values: patent US10604509B2, “Nrf2 regulators” (GlaxoSmithKline Intellectual Property Development Limited, priority 2015, dated 2020)
Counter-ions that a name gives are not always drawn. Like-named read-outs stand apart in the source and are kept apart here.

What was measured:
[1] = system: rats; details: rats on a choline-deficient L-amino acid-defined diet; cited from earlier work
[2] = system: COPD macrophages and alveolar macrophages from cigarette smoke-exposed mice; details: cited from earlier work
[3] = system: rats; details: cerebral ischemia-reperfusion model; cited from earlier work
[4] = system: mice; details: NRF2 wild-type and KO mice after administration; cited from earlier work
[5] = system: NQO1 specific enzyme activity in BEAS-2B cells; experiment: BEAS-2B NQO1 MTT assay; format: cell-based; details: Homo sapiens, BEAS-2B, 48 h, read-out: EC50 of NQO1 specific activity induction
Method in brief: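 NQO1 specific activity, an NRF2 activation marker, read kinetically as absorbance change at 570 nm for 30 min after MTT cocktail addition to crude lysates of BEAS-2B cells exposed 48 h to compound. Three-parameter fit of Delta OD/min against log concentration gives EC50; lysate portion used for Cell Titer Glo.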

[6] = BEAS-2B cells, 48 hours with compound, MTT readout

In the case of `O=C(NCc1ccccn1)Nc1nnc(-c2ccco2)o1` [NK-252], the “progression of histologic abnormalities, especially hepatic fibrosis” value [1] is listed as “significantly attenuated progression of histologic abnormalities”.

For `Cc1c(-c2cnccn2)ssc1=S` [oltipraz], the “progression of histologic abnormalities, especially hepatic fibrosis” value [1] is listed as “significantly attenuated progression of histologic abnormalities”.

In the case of `C[S+]([O-])CCCCN=C=S` (stereo not drawn) [Sulforaphane], the “expression of Macrophage Receptor with Collagenous structure (MARCO)” value ([2]; COPD macrophages and alveolar macrophages from cigarette smoke-exposed mice) is given as “increases the expression of Macrophage Receptor with Collagenous structure (MARCO)” and the “bacterial phagocytosis and bacterial clearance” value ([2]; Pseudomonas aeruginosa, non-typable Haemophilus influenzae, ex vivo and in vivo) is given as “improving in these cells bacterial phagocytosis”.

In the case of `CC(C)(C)c1cc(O)ccc1O` [tert-butylhydroquinone (tBHQ), tert-butylhydroquinone], the cortical damage [3] is listed as “reduced cortical damage” and the cortical glutathione levels [4] is listed as “increased in NRF2 wild-type but not KO mice”.

In the case of `Cc1ccc(C(CC(=O)O)c2ccc3c(nnn3C)c2C)cc1CN1Cc2ccccc2OC(C)(C)C1` (stereo not drawn) [Example 89, 3-(1,4-Diemthyl-1H-benzo[d][1,2,3]triazol-5-yl)-3-(3-((2,2-dimethyl-2,3-dihydrobenzo[f][1,4]oxazepin-4(5H)-yl)methyl)-4-methylphenyl)propanoic acid], the EC50 [5, 6] is reported as 10 to 100 nM.

Work on `Cc1ccc(C(CC(=O)O)c2ccc3c(nnn3C)c2C)cc1Cn1ccnc1CN1CCC(F)(F)CC1` (stereo not drawn) [Example 149, 3-(3-((2-((4,4-Difluoropiperidin-1-yl)methyl)-1H-imidazol-1-yl)methyl)-4-methylphenyl)-3-(1,4-dimethyl-1H-benzo[d][1,2,3]triazol-5-yl)propanoic acid] yielded an EC50 [5, 6] of 100 to 1000 nM.

Work on `CC[C@@H]1CN(Cc2cc([C@@H](c3ccc4c(nnn4C)c3C)C(C)(C)C(=O)O)ccc2C)Cc2cnccc2O1` [Example 24, (S)-3-(1,4-Dimethyl-1H-benzo[d][1,2,3]triazol-5-yl)-3-(3-(((R)-2-ethyl-2,3-dihydropyrido[3,4-f][1,4]oxazepin-4(5H)-yl)methyl)-4-methylphenyl)-2,2-dimethylpropanoic Acid, Formic Acid Salt] yielded an EC50 [5] of less than 1 nM.
